Data as given in patent US8420634B2, “Amidine, thiourea and guanidine derivatives of 2-aminobenzothiazoles and aminobenzothiazines for their use as pharmacological agents for the treatment of neurodegenerative pathologies” (Rottapharm S.p.A., priority 2007, dated 2013).
Counter-ions that a name gives are not always drawn.

tested on: cortical slices; assay: in vitro ischemia (oxygen-glucose deprivation/re-oxygenation): glutamate released during re-oxygenation; format: cell-based; conditions: rat cortical slices, concentrations of 0.1-1 μM
Experimental: (§1) Said in vitro ischemia model is generally accepted as a comprehensive model for the study and selection of products with neuroprotective activity.
(§2) Male Sprague-Dawley rats (350-450 g; Charles River Italia, Calco, Italy) have been sacrificed following anaesthesia (i.p. injection of 30 mg/kg ketamine hydrochloride and 8 mg/kg xylazine hydrochloride). The brain is rapidly removed and placed in aCSF (artificial Cerebro Spinal Fluid, composition expressed in mM: 120 NaCl, 2.5 KCl, 1.3 MgCl2, 1.0 NaH2PO4, 1.5 CaCl2, 26 NaHCO3, 11 glucose, saturated with 95% O2 −5% CO2, with a final pH of 7.4, osmolarity 285-290 mOsmol). The cortex is removed and sectioned into slices 400 μm thick.
The slices are then maintained in oxygenated aCSF supplemented with 400 μM ascorbic acid for 1 hour at room temperature.
Cortical slices total weight 33.6±2.6 mg, n=10) are incubated at 37° C., in 2 ml aCSF under a flow of 95% O2/5% CO2 for a period of 30 minutes. Oxygen-glucose deprivation is then implemented for 30 minutes by incubating in aCSF where the glucose has been substituted by sucrose and the oxygen mix air flow replaced with 95% N2/5% CO2. After the period of oxygen-glucose deprivation, the slices are placed in oxygenated aCSF for 90 minutes (re-oxygenation). In the treated samples, the compound of formula I is dissolved in aCSF at the concentrations described.
(§3) Neuronal damage is assessed quantitatively by measuring the glutamate and lactate dehydrogenase (LDH) released into the aCSF during the period of re-oxygenation. In particular, glutamate is measured fluorimetrically (excitation at 366 nm; emission at 450 nm) using the conversion of NAD^+ to NADH catalysed by glutamate dehydrogenase (Eilers et al., 1999) while LDH activity is determined spectrophotometrically by measuring the reduction in absorbance at 340 nm via the oxidation of NADH to NAD^+ (Gay et al., 1968).
All experiments have been conducted using slices obtained from at least 4 different rats. Data is reported as the S.E.M. and “n” is defined as the sample number. Data for glutamate and LDH activity is expressed as nmol/mg tissue and U/mg tissue, respectively. One unit (U) of LDH activity is defined as the correspondent yielding one micromole of lactate in one minute. Statistical analyses have been conducted using ANOVA followed by post-hoc Dunnett tests (GraphPad INSTAT v3.00, GraphPad Software, San Diego, Calif., USA).

Compound	reduction in glutamate release
C/C(=N/c1nc2ccc(OC(F)(F)F)cc2s1)N(C)C [Example 5, N,N-dimethyl-N′-[6-(trifluoromethoxy)benzothiazol-2-yl]acetamidine]	remarkable reduction (a reduction in glutamic acid release and/or LDH activity to a value comprised of between 10% and 50% of that of the control sample)
CCCCNC(=S)Nc1nc2ccc(OC(F)(F)F)cc2s1 [Example 12, 1-Butyl-3-[6-(trifluoromethoxy)benzothiazol-2-yl]thiourea]	remarkable reduction (a reduction in glutamic acid release and/or LDH activity to a value comprised of between 10% and 50% of that of the control sample)
CN/C(C)=N/C1=Nc2ccccc2CS1 [Example 17, N′-(4H-3,1-benzothiazin-2-yl)-N-methylacetamidine]	remarkable reduction (a reduction in glutamic acid release and/or LDH activity to a value comprised of between 10% and 50% of that of the control sample)
C/C(=N\C1=Nc2ccccc2CS1)N(C)C [Example 18, N′-(4H-3,1-benzothiazin-2-yl)-N,N-dimethylacetamidine]	remarkable reduction (a reduction in glutamic acid release and/or LDH activity to a value comprised of between 10% and 50% of that of the control sample)
CCN(CC)/C(C)=N/C1=Nc2ccccc2CS1 [Example 19, N′-(4H-3,1-benzothiazin-2-yl)-N,N-diethylacetamidine]	remarkable reduction (a reduction in glutamic acid release and/or LDH activity to a value comprised of between 10% and 50% of that of the control sample)
CN/C(C)=N/C1=Nc2ccccc2SC1 [Example 21, N′-(2H-1,4-benzothiazin-3-yl)-N-methylacetamidine]	remarkable reduction (a reduction in glutamic acid release and/or LDH activity to a value comprised of between 10% and 50% of that of the control sample)

same assay, conditions: rat cortical slices, concentrations of 0.1-10 μM

Compound	reduction in glutamate release
CCCNC(=N)Nc1nc2ccc(OC(F)(F)F)cc2s1 [Example 16, 1-Propyl-3-[6-(trifluoromethoxy)benzothiazol-2-yl]guanidine]	remarkable reduction (a reduction in glutamic acid release and/or LDH activity to a value comprised of between 10% and 50% of that of the control sample)

tested on: cortical slices; assay: in vitro ischemia (oxygen-glucose deprivation/re-oxygenation): LDH activity released during re-oxygenation; format: cell-based; conditions: rat cortical slices, concentrations of 0.1-1 μM
Experimental: as §1
as §2, with “thick. […]” for “thick.”
as §3
All experiments have been conducted using slices obtained from at least 4 different rats. […] Data for glutamate and LDH activity is expressed as nmol/mg tissue and U/mg tissue, respectively. […]

Compound	reduction in LDH activity
CCNC(=S)Nc1nc2ccc(OC(F)(F)F)cc2s1 [Example 9, 1-Ethyl-3-[6-(trifluoromethoxy)benzothiazol-2-yl]thiourea]	remarkable reduction (a reduction in glutamic acid release and/or LDH activity to a value comprised of between 10% and 50% of that of the control sample)

tested on: not given; assay: not given; conditions: not given

Compound	melting point
CN/C(C)=N/C1=Nc2ccccc2CS1 (as salt: oxalate) [Example 17, N′-(4H-3,1-benzothiazin-2-yl)-N-methylacetamidine]	110 to 113 °C (dec.)
CCNC(=S)Nc1nc2ccc(OC(F)(F)F)cc2s1 [Example 9, 1-Ethyl-3-[6-(trifluoromethoxy)benzothiazol-2-yl]thiourea]	199 to 200 °C
CCCNC(=S)Nc1nc2ccc(OC(F)(F)F)cc2s1 [Example 10, 1-Propyl-3-[6-(trifluoromethoxy)benzothiazol-2-yl]thiourea]	226 to 228 °C
CC(C)NC(=S)Nc1nc2ccc(OC(F)(F)F)cc2s1 [Example 11, 1-Isopropyl-3-[6-(trifluoromethoxy)benzothiazol-2-yl]thiourea]	242 °C
CCCCNC(=S)Nc1nc2ccc(OC(F)(F)F)cc2s1 [Example 12, 1-Butyl-3-[6-(trifluoromethoxy)benzothiazol-2-yl]thiourea]	211 °C
FC(F)(F)Oc1ccc2nc(NC(=S)Nc3ccccc3)sc2c1 [Example 13, 1-Phenyl-3-[6-(trifluoromethoxy)benzothiazol-2-yl]thiourea]	234 °C
Fc1ccc(NC(=S)Nc2nc3ccc(OC(F)(F)F)cc3s2)cc1 [Example 14, 1-(4-Fluorophenyl)3-[6-(trifluoromethoxy)benzothiazol-2-yl]thiourea]	207 °C
CCNC(=N)Nc1nc2ccc(OC(F)(F)F)cc2s1 [Example 15, 1-Ethyl-3-[6-(trifluoromethoxy)benzothiazol-2-yl]guanidine]	127 to 129 °C
CCCNC(=N)Nc1nc2ccc(OC(F)(F)F)cc2s1 [Example 16, 1-Propyl-3-[6-(trifluoromethoxy)benzothiazol-2-yl]guanidine]	110 to 111 °C

Further lines, results first:

melting point	Compound
154 to 157 °C (dec.)	C/C(=N\C1=Nc2ccccc2CS1)N(C)C (as salt: oxalate) [Example 18, N′-(4H-3,1-benzothiazin-2-yl)-N,N-dimethylacetamidine]
164 to 166 °C (dec.)	CN/C(C)=N/C1=Nc2ccccc2SC1 (as salt: oxalate) [Example 21, N′-(2H-1,4-benzothiazin-3-yl)-N-methylacetamidine]
120 to 122 °C (dec.)	C/C(=N\C1=Nc2ccccc2SC1)N(C)C (as salt: oxalate) [Example 22, N′-(2H-1,4-benzothiazin-3-yl)-N,N-dimethylacetamidine]
191 to 196 °C	CCNC(=S)NC1=Nc2ccccc2CS1 [Example 29, 1-(4H-3,1-benzothiazin-2-yl)-3-ethylthiourea]
180 to 184 °C	CCCNC(=S)NC1=Nc2ccccc2CS1 [Example 30, 1-(4H-3,1-benzothiazin-2-yl)-3-propylthiourea]
169 to 172 °C	CCNC(=S)NC1=Nc2ccc(OC(F)(F)F)cc2CS1 [Example 31, 1-Ethyl-3-[6-(trifluoromethoxy)-4H-3,1-benzothiazin-2-yl]thiourea]
148 to 151 °C	CCCNC(=S)NC1=Nc2ccc(OC(F)(F)F)cc2CS1 [Example 32, 1-Propyl-3-[6-(trifluoromethoxy)-4H-3,1-benzothiazin-2-yl]thiourea]
199 to 201 °C	CCNC(=S)NC1=Nc2ccc(OC(F)(F)F)cc2SC1 [Example 33, 1-Ethyl-3-[7-(trifluoromethoxy)-2H-1,4-benzothiazin-3-yl]thiourea]
180 to 182 °C	CCCNC(=S)NC1=Nc2ccc(OC(F)(F)F)cc2SC1 [Example 34, 1-Propyl-3-(7-trifluoromethoxy-2H-1,4-benzothiazin-3-yl)thiourea]
